“And” between values parts separate entries of the source, which are not always exact repeats. Equal values may be shown once.
Assays:
Type in all cases: cell-based, rat
[1] = test system: TH positive dopaminergic neurons of primary mesencephalic culture; assay: Neuroprotective effect on TH positive dopaminergic neuron survival following exposure to rotenone; conditions: rotenone 10 nM, 24 hours, toxin alone
Protocol: (§1) The mesencephalic neurons were cultivated as in preceding example.
(§2) The cells were fixed, washed, permeabilized and non-specific sites were blocked.
(§3) For each condition (6 culture wells), 20 automatically fields per well (representing ˜80% of the total surface of the well) were analyzed. The total number of TH neurons was automatically analyzed using MetaXpress software (Molecular Devices).

[2] = test system: TH positive dopaminergic neurons of primary mesencephalic culture; assay: Neuroprotective effect on TH positive dopaminergic neuron survival following exposure to 6-OHDA; conditions: 6-OHDA 20 μM, 24 h, toxin alone
Protocol: This study investigated the neuroprotective effect of the plant extract of the invention on rat primary mesencephalic cultures following exposure to 6OHDA. […]
The midbrains were dissociated by trypsinisation for 20 min at 37° C. (Trypsin 0.05%, EDTA 0.02% (Batch 7310713, PanBiotech). The reaction was stopped by the addition of Dulbecco's modified Eagle's medium (DMEM, Batch 9710913, PanBiotech) containing DNAase I grade II (0.1 mg/mL, Batch H131108, PanBiotech) and 10% of foetal calf serum (FCS, Batch 41Q7218K, Gibco). Cells were then mechanically dissociated by 3 passages through a 10 mL pipette. Cells were then centrifuged at 180×g for 10 min at +4° C. on a layer of BSA (3.5%) in L15 medium. The supernatant was discarded and the cell pellets were re-suspended in a defined culture medium consisting of Neurobasal (Batch 1576979, Invitrogen, France) supplemented with 2% of B27 (Batch 1589889, Invitrogen), 2 mM of L-glutamine (Batch 8150713, PanBiotech), 2% of PS solution, 10 ng/mL of Brain-derived neurotrophic factor (Batch H140108, PanBiotech) and 1 ng/mL of Glial-Derived Neurotrophic Factor (Batch H130917, Pan Biotech) Viable cells were counted in a Neubauer cytometer using the trypan blue exclusion test. […]

[3] = test system: TH positive dopaminergic neurons of primary mesencephalic culture; assay: Neuroprotective effect on TH positive dopaminergic neuron survival following exposure to MPP+; conditions: MPP+ 4 μM, 48 h
Protocol: This study investigated the neuroprotective effect of the plant extract of the invention on rat primary mesencephalic cultures following exposure to 1-methyl-4-phenyl pyridinium (MPP^+).
In such assay, […] (BDNF) was used as standard molecule.
as §1
On day 6 of culture, the medium was removed and fresh medium was added, without or with MPP^+ (Batch 092M4729V, Sigma, France) at 4 μM diluted in control medium. 6 wells per condition were assessed.
as §2
as §3, with “The immunolabeled cultures were automatically examined with ImageXpress (Molecular Devices, United Kingdom) equipped with a LED at ×10 magnification. For” for “For”
Data were expressed in percentage of control conditions (no MPP^+=100%) in order to express the MPP^+ injury. All values were expressed as mean+/−SEM (s.e.mean) of the 6 wells with statistical analyses on the different conditions (ANOVA followed by Dunnett's test when allowed, using GraphPad Prism software). […]

C=C(C)[C@H]1Cc2c(ccc3c2O[C@@H]2COc4cc(OC)c(OC)cc4[C@@H]2C3=O)O1 [Rotenone, rotenone]
cell death of TH positive neurons induced by the toxin [1]: ~40%

NCCc1cc(O)c(O)cc1O [Composition 6-OHDA, 6-hydroxydopamine]
cell death of TH positive neurons induced by the toxin [2]: > 25%

C[n+]1ccc(-c2ccccc2)cc1 [MPP^+, 1-methyl-4-phenyl pyridinium]
cell death of TH positive neurons induced by the toxin ([3]; toxin alone): > 35% and > 30%

B1: BDNF: Brain Derived Growth Factor (BDNF) used as standard molecule (protein, UniProt P23560 19-247, looked up)
Neurotrophic factor BDNF …: APMKEANIRGQGGLAYPGVRTHGTLESVNGPKAGSRGLTSLADTFEHVIEELLDEDQKVRPNEENNKDADLYTSRVMLSSQVPLEPPLLFLLEEYKNYLDAANMSMRVRRHSDPARRGELSVCDSISEWVTAADKKTAVDMSGGTVTVLEKVPVSKGQLKQYFYETKCNPMGYTKEGCRGIDKRHWNSQCRTTQSYVRALTMDSKKRIGWRFIRIDTSCVCTLTIKRGR
protection from MPP+ induced injuries ([3]; 50 ng/mL): able to significantly protect cells

Reference: patent US10596217B2, “Compositions containing a Withania somnifera extract incubated with a filamentous fungus of the Beauvaria genus” (Ethnodyne, priority 2015, dated 2020)
